The test has as its target Erk1 (Homo sapiens (Human), UniProt P27361). In words: Protein Mass Modification Assay (intact protein MALDI). It counts as binding. The method, then:
Protein Mass Modification Assay
Intact protein: Erk1 from Millipore (Cat. No. 14-439) was incubated for 60 min. at room temperature with a 10-fold excess of test compound to protein. 4 μL aliquots of the resulting mixture were diluted with 15 μL of 0.2% TFA prior to micro C4 ZipTipping directly onto the MALDI target using sinapinic acid as the desorption matrix (10 mg/ml in 0.1% TFA:Acetonitrile 50:50, v/v). The centroid mass of the target protein in the control sample was compared with the centroid mass of the target protein incubated with compound. A shift in the centroid mass of the treated protein compared to the untreated protein was divided by the molecular weight of the compound. This number corresponds to the percentage of modified protein after one hour incubation. Results from this assay are reported in Table A under the column “ERK1 Mass Mod (%).”

Chain of Erk1 (P27361 whole entry, looked up): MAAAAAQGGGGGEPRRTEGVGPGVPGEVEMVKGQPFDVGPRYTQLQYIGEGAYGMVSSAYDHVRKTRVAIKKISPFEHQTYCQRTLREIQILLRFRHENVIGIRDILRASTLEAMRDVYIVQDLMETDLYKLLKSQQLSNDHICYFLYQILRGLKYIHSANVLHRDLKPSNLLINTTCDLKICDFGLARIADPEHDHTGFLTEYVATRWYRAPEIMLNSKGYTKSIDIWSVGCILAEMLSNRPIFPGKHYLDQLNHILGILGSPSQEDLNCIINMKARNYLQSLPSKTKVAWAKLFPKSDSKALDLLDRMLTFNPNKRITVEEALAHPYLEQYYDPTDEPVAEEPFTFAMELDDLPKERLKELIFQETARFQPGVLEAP

For `C=CC(=O)Nc1ccccc1Nc1nc(NC2CCN(C(C)=O)CC2)ncc1C(F)(F)F` [Compound I-12, N-(2-((2-((1-acetylpiperidin-4-yl)amino)-5-(trifluoromethyl)pyrimidin-4-yl)amino)phenyl)acrylamide], the “ERK1 Mass Mod (%)” value was “E (provided a mass modification of ≧70%)”.

With `CC(=O)N1CCC[C@H](Nc2ncc(C(F)(F)F)c(Nc3ccccc3NC(=O)CCCl)n2)C1` [Compound I-21, (S)—N-(2-((2-((1-Acetylpiperidin-3-yl)amino)-5-(trifluoromethyl)pyrimidin-4-yl)amino)phenyl)-3-chloropropanamide], the “ERK1 Mass Mod (%)” value is “F (provided a mass modification of 31-69%)”.

For `O=C(CCCl)Nc1ccccc1Nc1nc(N[C@H]2CCCN(C(=O)CO)C2)ncc1C(F)(F)F` [Compound I-22, (S)-3-Chloro-N-(2-((2-((1-(2-hydroxyacetyl)piperidin-3-yl)amino)-5-(trifluoromethyl)pyrimidin-4-yl)amino)phenyl)propanamide], the “ERK1 Mass Mod (%)” value is “G (proived a mass modification ≦30%)”.

With `CC(=O)N1CCC[C@H](Nc2ncc(C(F)(F)F)c(Nc3ccccc3NC(=O)CCl)n2)C1` [Compound I-30, (S)—N-(2-((2-((1-Acetylpiperidin-3-yl)amino)-5-(trifluoromethyl)pyrimidin-4-yl)amino)phenyl)-2-chloroacetamide], the “ERK1 Mass Mod (%)” value is recorded as “G (proived a mass modification ≦30%)”.

Take `O=C(CCl)Nc1ccccc1Nc1nc(N[C@H]2CCCN(C(=O)CCl)C2)ncc1C(F)(F)F` [Compound I-31, (S)-2-Chloro-N-(2-((2-((1-(2-chloroacetyl)piperidin-3-yl)amino)-5-(trifluoromethyl)pyrimidin-4-yl)amino)phenyl)acetamide]: the “ERK1 Mass Mod (%)” value was “G (proived a mass modification ≦30%)”.

For `C=CC(=O)N[C@@H]1CCCC[C@H]1Nc1nc(N[C@H]2CCCN(C(=O)CO)C2)ncc1C(F)(F)F` [Compound I-32, N-((1R,2R)-2-((2-(((S)-1-(2-hydroxyacetyl)piperidin-3-yl)amino)-5-(trifluoromethyl)pyrimidin-4-yl)amino)cyclohexyl)acrylamide], the “ERK1 Mass Mod (%)” value is “F (key: E: provided a mass modification of ≧70%; F: provided a mass modification of 31-69%; G: proived a mass modification ≦30%)”.

In the case of `C#CC(=O)N[C@@H]1CCCC[C@H]1Nc1nc(N[C@H]2CCCN(C(=O)CO)C2)ncc1C(F)(F)F` [Compound I-34, N-((1R,2R)-2-((2-(((S)-1-(2-Hydroxyacetyl)piperidin-3-yl)amino)-5-(trifluoromethyl)pyrimidin-4-yl)amino)cyclohexyl)propiolamide], the “ERK1 Mass Mod (%)” value was “F (provided a mass modification of 31-69%)”.

Turning to `O=C(CCl)N[C@@H]1CCCC[C@H]1Nc1nc(N[C@H]2CCCN(C(=O)CO)C2)ncc1C(F)(F)F` [Compound I-35, 2-Chloro-N-((1R,2R)-2-((2-(((S)-1-(2-hydroxyacetyl)piperidin-3-yl)amino)-5-(trifluoromethyl)pyrimidin-4-yl)amino)cyclohexyl)acetamide], the “ERK1 Mass Mod (%)” value was “G (proived a mass modification ≦30%)”.

For `C=CC(=O)Nc1ccc(C)cc1Nc1nc(NC2CCC(=O)CC2)ncc1C(F)(F)F` [Compound I-39, N-(4-Methyl-2-((2-((4-oxocyclohexyl)amino)-5-(trifluoromethyl)pyrimidin-4-yl)amino)phenyl)acrylamide], the “ERK1 Mass Mod (%)” value is given as “E (provided a mass modification of ≧70%)”.

With `C=CC(=O)Nc1ccccc1Nc1nc(N[C@H]2CCCN(C(=O)C(C)=O)C2)ncc1C(F)(F)F` [Compound I-49, (S)—N-(2-((2-((1-(2-Oxopropanoyl)piperidin-3-yl)amino)-5-(trifluoromethyl)pyrimidin-4-yl)amino)phenyl)acrylamide], the “ERK1 Mass Mod (%)” value is recorded as “E (provided a mass modification of ≧70%)”.

With `C=CC(=O)Nc1ccccc1Nc1nc(N[C@H]2CCCN(C(=O)[C@@H](O)CO)C2)ncc1C(F)(F)F` [Compound I-50, N-(2-((2-(((S)-1-((S)-2,3-Dihydroxypropanoyl)piperidin-3-yl)amino)-5-(trifluoromethyl)pyrimidin-4-yl)amino)phenyl)acrylamide], the “ERK1 Mass Mod (%)” value is on record as “E (provided a mass modification of ≧70%)”.

As to `C=CC(=O)Nc1ccccc1Nc1nc(N[C@H]2CCCN(C(=O)[C@H](O)CO)C2)ncc1C(F)(F)F` [Compound I-51, N-(2-((2-(((S)-1-((R)-2,3-Dihydroxypropanoyl)piperidin-3-yl)amino)-5-(trifluoromethyl)pyrimidin-4-yl)amino)phenyl)acrylamide], the “ERK1 Mass Mod (%)” value is recorded as “E (provided a mass modification of ≧70%)”.

In the case of `C=CC(=O)Nc1ccccc1Nc1nc(N[C@H]2CCCN(C(=O)C=O)C2)ncc1C(F)(F)F` [Compound I-52, (S)—N-(2-((2-((1-(2-Oxoacetyl)piperidin-3-yl)amino)-5-(trifluoromethyl)pyrimidin-4-yl)amino)phenyl)acrylamide], the “ERK1 Mass Mod (%)” value is listed as “E (provided a mass modification of ≧70%)”.

Turning to `C=CC(=O)Nc1ccccc1Nc1nc(N[C@H]2CCN(C(C)=O)C2)ncc1C(F)(F)F` [Compound I-56, (S)—N-(2-((2-((1-Acetylpyrrolidin-3-yl)amino)-5-(trifluoromethyl)pyrimidin-4-yl)amino)phenyl)acrylamide], the “ERK1 Mass Mod (%)” value is “F (provided a mass modification of 31-69%)”.

For `C=CC(=O)Nc1ccccc1Nc1nc(N[C@H]2CCN(C(=O)CO)C2)ncc1C(F)(F)F` [Compound I-57, (S)—N-(2-((2-((1-(2-Hydroxyacetyl)pyrrolidin-3-yl)amino)-5-(trifluoromethyl)pyrimidin-4-yl)amino)phenyl)acrylamide], the “ERK1 Mass Mod (%)” value was “F (provided a mass modification of 31-69%)”.

With `C=CC(=O)Nc1ccccc1Nc1nc(N[C@H]2CCN(S(C)(=O)=O)C2)ncc1C(F)(F)F` [Compound I-58, (S)—N-(2-((2-((1-(Methylsulfonyl)pyrrolidin-3-yl)amino)-5-(trifluoromethyl)pyrimidin-4-yl)amino)phenyl)acrylamide], the “ERK1 Mass Mod (%)” value is “E (provided a mass modification of ≧70%)”.

As to `C=CC(=O)Nc1ccccc1Nc1nc(N[C@H]2CCN(C(=O)OC)C2)ncc1C(F)(F)F` [Compound I-59, (S)-methyl 3-((4-((2-Acrylamidophenyl)amino)-5-(trifluoromethyl)pyrimidin-2-yl)amino)pyrrolidine-1-carboxylate], the “ERK1 Mass Mod (%)” value was “E (provided a mass modification of ≧70%)”.

With `C=CC(=O)Nc1ccccc1Nc1nc(N[C@@H]2CCN(C(C)=O)C2)ncc1C(F)(F)F` [Compound I-60, (R)—N-(2-((2-((1-Acetylpyrrolidin-3-yl)amino)-5-(trifluoromethyl)pyrimidin-4-yl)amino)phenyl)acrylamide], the “ERK1 Mass Mod (%)” value is given as “E (provided a mass modification of ≧70%)”.

As for `C=CC(=O)Nc1ccccc1Nc1nc(Nc2ccc(N3CCOCC3)cc2OC)ncc1C(F)(F)F` [Compound I-65, N-(2-((2-((2-Methoxy-4-morpholinophenyl)amino)-5-(trifluoromethyl)pyrimidin-4-yl)amino)phenyl)acrylamide], the “ERK1 Mass Mod (%)” value is “E (provided a mass modification of ≧70%)”.

For `C=CC(=O)Nc1ccccc1Nc1nc(Nc2cc(C(=O)NOC)ccc2OC)ncc1C(F)(F)F` [Compound I-67, 3-((4-((2-Acrylamidophenyl)amino)-5-(trifluoromethyl)pyrimidin-2-yl)amino)-N,4-dimethoxybenzamide], the “ERK1 Mass Mod (%)” value is reported as “E (provided a mass modification of ≧70%)”.

In the case of `C=CC(=O)Nc1ccccc1Nc1nc(Nc2cc(C(=O)NOC)ccc2C#N)ncc1C(F)(F)F` [Compound I-72, 3-((4-((2-Acrylamidophenyl)amino)-5-(trifluoromethyl)pyrimidin-2-yl)amino)-4-cyano-N-methoxybenzamide], the “ERK1 Mass Mod (%)” value is on record as “E (provided a mass modification of ≧70%)”.

With `C=CC(=O)Nc1ccccc1Nc1nc(Nc2cc(C(=O)NOCCO)ccc2C)ncc1C(F)(F)F` [Compound I-73, 3-((4-((2-Acrylamidophenyl)amino)-5-(trifluoromethyl)pyrimidin-2-yl)amino)-N-(2-hydroxyethoxy)-4-methylbenzamide], the “ERK1 Mass Mod (%)” value was “E (key: E: provided a mass modification of ≧70%; F: provided a mass modification of 31-69%; G: proived a mass modification ≦30%)”.

Take `C=CC(=O)Nc1ccccc1Nc1nc(Nc2cc(C(=O)NOCCO)ccc2OC)ncc1C(F)(F)F` [Compound I-74, 3-((4-((2-Acrylamidophenyl)amino)-5-(trifluoromethyl)pyrimidin-2-yl)amino)-N-(2-hydroxyethoxy)-4-methoxybenzamide]: the “ERK1 Mass Mod (%)” value was “E (provided a mass modification of ≧70%)”.

Turning to `C=CC(=O)Nc1ccccc1Nc1nc(Nc2cc(C(=O)NOCCO)ccc2C#N)ncc1C(F)(F)F` [Compound I-75, 3-((4-((2-Acrylamidophenyl)amino)-5-(trifluoromethyl)pyrimidin-2-yl)amino)-4-cyano-N-(2-hydroxyethoxy)benzamide], the “ERK1 Mass Mod (%)” value is recorded as “E (provided a mass modification of ≧70%)”.

Regarding `C=CC(=O)Nc1ccccc1Nc1nc(Nc2cc(C(=O)O)ccc2C)ncc1C(F)(F)F` [Compound I-78, 3-((4-((2-Acrylamidophenyl)amino)-5-(trifluoromethyl)pyrimidin-2-yl)amino)-4-methylbenzoic acid], the “ERK1 Mass Mod (%)” value is “E (provided a mass modification of ≧70%)”.

As for `C=CC(=O)Nc1ccccc1Nc1nc(Nc2cc(C(=O)NC)c(F)cc2C)ncc1C(F)(F)F` [Compound I-80, 5-((4-((2-Acrylamidophenyl)amino)-5-(trifluoromethyl)pyrimidin-2-yl)amino)-2-fluoro-N,4-dimethylbenzamide], the “ERK1 Mass Mod (%)” value is “E (provided a mass modification of ≧70%)”.

(Values after patent US9796700B2 (Celgene CAR LLC, priority 2013, dated 2017).)
